Key:
Type in all cases: cell-based
M7609 cells = experiment: Apoptosis induction by TUNEL staining
Experimental: A TUNEL method was carried out as follows using an In Situ Cell Death Detection Kit, POD (Roche). GST-π knockdown cells obtained by the procedure of Example 1 (2) were plated on a cover slip placed in a 35 mm plastic tissue culture dish so as to give 1×10^5 cells/2 mL. After the medium was aspirated, 4% paraformaldehyde in PBS was added, and incubation was carried out at room temperature for 60 min., thus fixing the cells. In order to carry out blocking of endogenous peroxidase, incubation was carried out with 3% H2O2 in methanol at room temperature for 10 min. Subsequently, permeabilization of cells was carried out by treating with 0.1% Triton X-100 in 0.1% sodium citrate on ice for 2 min. The TUNEL reaction was carried out in a humidity chamber at 37° C. for 60 min. Detection of TUNEL-positive cells was carried out by a coloration reaction using a DAB substrate after reacting a peroxidase labeled anti-fluorescein antibody at 37° C. for 30 min. Counter staining was carried out using hematoxylin, stained cells were examined under an optical microscope, and TUNEL-positive cells were evaluated as apoptotic cells. Washing between the operations was carried out by rinsing with PBS.

[1] = system: RAS/Raf/MAPK signal cascade; experiment: Western blot of protein involved in RAS/Raf/MAPK signal cascade; conditions: M7609 cells
Experimental: A western blot analysis for the main protein involved in the RAS/Raf/MAPK signal cascade was carried out in the same way as for (3) above using cells harvested on the 2nd day after transfection with GST-π siRNA. As antibodies, in addition to anti-GST-π antibody, anti-p-Raf-1 (Ser338) antibody (MILLIPORE), anti-Raf-1 antibody (Santa Cruz), anti-p-MEK1/2 (Ser217/221) antibody (Cell Signaling), anti-MEK1/2 antibody (Cell Signaling), anti-p-ERK1/2 (Thr202/Tyr204) antibody (Cell Signaling), anti-ERK antibody (Cell Signaling), and anti-GAPDH antibody (Abcam) were used.

[2] = system: EGFR/PI3K/Akt/mTOR signal cascade; experiment: Western blot of EGFR/PI3K/Akt/mTOR signal; conditions: M7609 cells, compared with Scramble siRNA (FIG. 11)
Experimental: Expression of each protein constituting the EGFR/PI3K/Akt/mTOR signal cascade was analyzed in the same way as for Example 1 (1), (2), and (4) except that, as primary antibodies, anti-p-EGFR (Tyr1068) antibody (Cell Signaling), anti-EGFR antibody (Santa Cruz), anti-p-PI3K p85 (Tyr458)/p55 (Tyr199) antibody (Cell Signaling), anti-PI3K, p85 antibody (MILLIPORE), anti-p-Akt (Ser473) antibody (Cell Signaling), anti-Akt antibody (Cell Signaling), anti-p-p70S6K (Thr389) antibody (Cell Signaling), anti-p-p70S6K (Thr421/Ser424) antibody (Cell Signaling), and anti-p70S6K antibody (Cell Signaling) were used.

LC3 = experiment: Autophagy induction by LC3 western blotting; conditions: M7609 cells, western blot with anti-LC3 antibody (FIG. 8)
Experimental: Induction of autophagy in GST-π knockdown cells was further analyzed by a western blot analysis of LC3. GST-π knockdown cells obtained by the procedure of Example 1 (2) were plated on a cover slip placed in a 35 mm plastic tissue culture dish so as to give 1×10^5 cells/2 mL. After incubating for a predetermined time, a cell extract was collected and subjected to a western blot analysis. A reaction with a transfer membrane was carried out at 4° C. for 16 hours using anti-LC3B antibody (SIGMA) as a primary antibody. Detection of LC3 molecules was carried out using a chemoluminescent reagent after a reaction with HRP-labeled secondary antibody. Whether or not autophagy was induced was evaluated by a shift of LC3 from type I (18 kDa) to type II (16 kDa).

Raf-1 = experiment: Immunoprecipitation of Raf-1 and anti-ubiquitin western blot; conditions: M7609 cells
Experimental: In the same way as for Example 1 (3), on the 2nd day after siRNA transfection culturing was carried out for 16 hours in a serum-free medium, and a cell extract was collected. The cell extract thus obtained was subjected to quantitative protein analysis using a Micro BCA Protein Assay Kit (Scramble siRNA: 8.88 μg/μL, GST-π siRNA: […]). 0.5 μg of the cell extract was mixed with anti-Raf-1 antibody conjugated to Dynabeads Protein G (Invitrogen), incubation was carried out at 4° C. for 2 hours while gently mixing in a shaker to thus isolate Raf-1 protein, and then a western blot analysis was carried out in the same way as for Example 1 (3) using an anti-ubiquitin antibody (Santa Cruz). Phosphorylation modification of Ser621, which is involved in inhibition of Raf-1 proteasome degradation, was investigated in the same manner using an anti-p-Raf-1 (Ser621) antibody (MILLIPORE).

“GST-π siRNA: GST-π siRNA (SEQ ID No: 1: GGGAGGCAAGACCUUCAUUTT, siRNA ID#2385, Ambion) (chemistry not given here)” was tested, and the “proportion of apoptosis-positive cells (TUNEL-positive per 1000 cells)” value (M7609 cells; 1 to 4 days after transfection (FIG. 10)) was “gradually but continuously increased up to 4th day”, the “TUNEL-positive cells (apoptosis)” value (M7609 cells; 3rd to 5th day after transfection, stained images (FIG. 9)) was “TUNEL-positive cells, that is, apoptosis, was observed” and the “expression level of Raf protein” value ([1]; 2nd day after transfection (FIG. 2)) was “decreases”. For the same substance, the “phosphorylation of proteins involved in the RAS/Raf/MAPK signal cascade” value ([1]; 2nd day after transfection, compared with Scramble siRNA (FIG. 2)) was “decreased”, the “phosphorylation of each protein constituting the EGFR/PI3K/Akt/mTOR signal cascade” value [2] was “reduced” and the “expression of type II LC3” value (LC3) was “markedly increased”. For the same substance, the “ubiquitination of Raf-1” value (Raf-1; 2nd day after transfection, compared with Scramble siRNA (FIG. 3)) was “enhanced” and the “expression of Raf protein and Ser621 phosphorylated Raf protein (p-Raf-1 (S621))” value (Raf-1; Raf-1 immunoprecipitate (FIG. 3)) was “decreased slightly”.
